Laboratory results as given in patent publication US20250163104A1, “MACROCYCLIC IMMUNOMODULATORS” (priority 2021, published 2025).
Where a SMILES comes first, the peptide text is derived from it. Bridges are numbered along the chain shown (N, C = ends). [ ]: non-standard residue; d: D form. The star is where a group is joined. ξ: configuration not given here. Phe(4-COOH) = N[C@@H](Cc1ccc(C(=O)O)cc1)C(=O)O; Bip = N[C@@H](Cc1ccc(-c2ccccc2)cc1)C(=O)O; Phe(3-Me) = Cc1cccc(C[C@H](N)C(=O)O)c1; Val(3-OH) = CC(C)(O)[C@H](N)C(=O)O; 4Pal = N[C@@H](Cc1ccncc1)C(=O)O; Cha = N[C@@H](CC1CCCCC1)C(=O)O; Cit = NC(=O)NCCC[C@H](N)C(=O)O; Ile(3ξ) = CCC(C)[C@H](N)C(=O)O; Thr(3ξ) = CC(O)[C@H](N)C(=O)O; Carboxymethyl = O=C(O)C*; Orn = NCCC[C@H](N)C(=O)O; Pra = C#CC[C@H](N)C(=O)O; Dab = NCC[C@H](N)C(=O)O; Dap = NC[C@H](N)C(=O)O; ξA = CC(N)C(=O)O

Target: T1, human PD-1 / PD-L1-Ig binding on Jurkat cell line over-expressing human PD-1 (Jurkat-PD-1) (Homo sapiens, UniProt Q15116)
T1 construct: expressed in transfected cells; host or cells: Jurkat
Experiment: Jurkat-PD-1 Cell Binding High-Content Screening Assay (CBA)
Format: cell-based
Conditions: Jurkat-PD-1 cells, PE-labeled PD-L1-Ig 20 nM final; read-out: Jurkat HPD1_PDL1 IC50
Procedure, shortened: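 Binding of fluorescent PD-L1-Ig (phycoerythrin linked via the Ig tag, 20 nM final) to PD-1-overexpressing Jurkat cells was imaged after a 2 h, 37° C compound pretreatment and 1 hour ligand incubation.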

T1 sequence (Q15116 25-288): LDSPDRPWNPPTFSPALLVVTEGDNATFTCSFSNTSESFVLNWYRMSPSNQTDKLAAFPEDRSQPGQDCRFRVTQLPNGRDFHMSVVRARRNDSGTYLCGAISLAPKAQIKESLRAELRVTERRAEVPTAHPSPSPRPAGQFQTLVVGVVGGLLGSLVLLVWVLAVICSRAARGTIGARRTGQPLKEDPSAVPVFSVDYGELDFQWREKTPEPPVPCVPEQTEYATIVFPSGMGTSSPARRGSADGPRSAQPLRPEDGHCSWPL

`C#CC[C@H](NC(=O)[C@H](CCN)NC(=O)[C@@H]1CSCC(=O)N[C@@H](Cc2ccncc2)C(=O)N[C@@H](Cc2ccc(OCC(=O)O)cc2)C(=O)N[C@@H](CC(=O)O)C(=O)N[C@@H](Cc2cccc(C)c2)C(=O)N[C@@H](Cc2ccc(OCC(=O)O)cc2)C(=O)N[C@@H](Cc2ccc(-c3ccccc3)cc2)C(=O)N[C@@H](Cc2ccc(OCC(=O)O)cc2)C(=O)N[C@@H](CCCN)C(=O)N[C@H](CC(C)C)C(=O)N[C@@H](CCN)C(=O)N[C@@H](CC2CCCCC2)C(=O)N[C@@H](C(C)(C)O)C(=O)N[C@@H](CO)C(=O)N1)C(=O)O` [Compound 2317] ({CH2CO}-[4Pal]Y(Carboxymethyl)D[Phe(3-Me)]Y(Carboxymethyl)[Bip]Y(Carboxymethyl)[Orn][dL][Dab][Cha][Val(3-OH)]SC[Dab][Pra]-OH; thioether N-14) and `C#CC[C@H](NC(=O)[C@H](CCN)NC(=O)[C@@H]1CSCC(=O)N[C@@H](Cc2ccncc2)C(=O)N[C@@H](Cc2ccc(C(=O)O)cc2)C(=O)N[C@@H](CC(=O)O)C(=O)N[C@@H](Cc2cccc(C)c2)C(=O)N[C@@H](Cc2ccc(OCC(=O)O)cc2)C(=O)N[C@@H](Cc2ccc(-c3ccccc3)cc2)C(=O)N[C@@H](Cc2ccc(OCC(=O)O)cc2)C(=O)N[C@@H](CCCN)C(=O)N[C@H](CC(C)C)C(=O)N[C@@H](CCN)C(=O)N[C@@H](CC2CCCCC2)C(=O)N[C@@H](C(C)(C)O)C(=O)N[C@@H](CO)C(=O)N1)C(=O)O` [Compound 2318] ({CH2CO}-[4Pal][Phe(4-COOH)]D[Phe(3-Me)]Y(Carboxymethyl)[Bip]Y(Carboxymethyl)[Orn][dL][Dab][Cha][Val(3-OH)]SC[Dab][Pra]-OH; thioether N-14) are within 1.5-fold of each other in IC50: 576 nM for the first, 678 nM for the second.

Going from `C#CC[C@H](NC(=O)CNC(=O)[C@@H]1CSCC(=O)N[C@@H](CCN)C(=O)N[C@@H](Cc2ccc(OCC(=O)O)cc2)C(=O)N[C@@H](CC(=O)O)C(=O)N[C@@H](Cc2c[nH]c3ccccc23)C(=O)N[C@@H](C(C)C)C(=O)N[C@@H](Cc2ccc(-c3ccccc3)cc2)C(=O)N[C@@H](C(C)CC)C(=O)N[C@@H](CCCN)C(=O)N[C@H](CC(C)C)C(=O)N[C@@H](CCN)C(=O)N[C@@H](CC2CCCCC2)C(=O)N[C@@H](C(C)(C)O)C(=O)N[C@@H](CO)C(=O)N1)C(=O)O` (stereo partly drawn) [Compound 2319] ({CH2CO}-[Dab]Y(Carboxymethyl)DWV[Bip][Ile(3ξ)][Orn][dL][Dab][Cha][Val(3-OH)]SCG[Pra]-OH; thioether N-14) to `C#CC[C@H](NC(=O)[C@@H](C)NC(=O)[C@@H]1CSCC(=O)N[C@@H](Cc2c[nH]cn2)C(=O)N[C@@H](Cc2ccc(OCC(=O)O)cc2)C(=O)N[C@@H](CC(=O)O)C(=O)N[C@@H](Cc2c[nH]c3ccccc23)C(=O)N[C@@H](C(C)C)C(=O)N[C@@H](Cc2ccc(-c3ccccc3)cc2)C(=O)N[C@@H](C(C)C)C(=O)N[C@@H](CCCN)C(=O)N[C@H](CC(C)C)C(=O)N[C@@H](CCN)C(=O)N[C@@H](CC2CCCCC2)C(=O)N[C@@H](C(C)(C)O)C(=O)N[C@@H](CO)C(=O)N1)C(N)=O` [Compound 2326] ({CH2CO}-HY(Carboxymethyl)DWV[Bip]V[Orn][dL][Dab][Cha][Val(3-OH)]SC[dA][Pra]-NH2; thioether N-14), the IC50 falls from 24.3 nM to 7.7 nM (3.2-fold).

Going from `C#CC[C@H](NC(=O)CNC(=O)[C@@H]1CSCC(=O)N[C@@H](CN)C(=O)N[C@@H](Cc2ccc(OCC(=O)O)cc2)C(=O)N[C@@H](CC(=O)O)C(=O)N[C@@H](Cc2cccc(C)c2)C(=O)N[C@@H](Cc2ccc(OCC(=O)O)cc2)C(=O)N[C@@H](Cc2ccc(-c3ccccc3)cc2)C(=O)N[C@@H](Cc2ccc(OCC(=O)O)cc2)C(=O)N[C@@H](CCCN)C(=O)N[C@H](CC(C)C)C(=O)N[C@@H](CCN)C(=O)N[C@@H](CC2CCCCC2)C(=O)N[C@@H](C(C)(C)O)C(=O)N[C@@H](CO)C(=O)N1)C(N)=O` [Compound 2321] ({CH2CO}-[Dap]Y(Carboxymethyl)D[Phe(3-Me)]Y(Carboxymethyl)[Bip]Y(Carboxymethyl)[Orn][dL][Dab][Cha][Val(3-OH)]SCG[Pra]-NH2; thioether N-14) to `C#CC[C@H](NC(=O)[C@@H](C)NC(=O)[C@@H]1CSCC(=O)N[C@@H](Cc2ccncc2)C(=O)N[C@@H](Cc2ccc(OCC(=O)O)cc2)C(=O)N[C@@H](CC(=O)O)C(=O)N[C@@H](Cc2cccc(C)c2)C(=O)N[C@@H](Cc2ccc(OCC(=O)O)cc2)C(=O)N[C@@H](Cc2ccc(-c3ccccc3)cc2)C(=O)N[C@@H](Cc2ccc(OCC(=O)O)cc2)C(=O)N[C@@H](CCCN)C(=O)N[C@H](CC(C)C)C(=O)N[C@@H](CCN)C(=O)N[C@@H](CC2CCCCC2)C(=O)N[C@@H](C(C)(C)O)C(=O)N[C@@H](CO)C(=O)N1)C(N)=O` [Compound 2328] ({CH2CO}-[4Pal]Y(Carboxymethyl)D[Phe(3-Me)]Y(Carboxymethyl)[Bip]Y(Carboxymethyl)[Orn][dL][Dab][Cha][Val(3-OH)]SC[dA][Pra]-NH2; thioether N-14), the IC50 rises from 19.3 nM to 632 nM (33-fold).

First: C#CC[C@H](NC(=O)CNC(=O)[C@@H]1CSCC(=O)N[C@@H](CCN)C(=O)N[C@@H](Cc2ccc(OCC(=O)O)cc2)C(=O)N[C@@H](CC(=O)O)C(=O)N[C@@H](Cc2c[nH]c3ccccc23)C(=O)N[C@@H](C(C)C)C(=O)N[C@@H](Cc2ccc(-c3ccccc3)cc2)C(=O)N[C@@H](C(C)CC)C(=O)N[C@@H](CCCN)C(=O)N[C@H](CC(C)C)C(=O)N[C@@H](CCN)C(=O)N[C@@H](CC2CCCCC2)C(=O)N[C@@H](C(C)(C)O)C(=O)N[C@@H](CO)C(=O)N1)C(=O)O (stereo partly drawn) [Compound 2322] ({CH2CO}-[Dab]Y(Carboxymethyl)DWV[Bip][Ile(3ξ)][Orn][dL][Dab][Cha][Val(3-OH)]SCG[Pra]-OH; thioether N-14)
Second: C#CC[C@H](NC(=O)[C@@H](C)NC(=O)[C@@H]1CSCC(=O)N[C@@H](Cc2c[nH]cn2)C(=O)N[C@@H](Cc2ccc(OCC(=O)O)cc2)C(=O)N[C@@H](CC(=O)O)C(=O)N[C@@H](Cc2c[nH]c3ccccc23)C(=O)N[C@@H](C(C)C)C(=O)N[C@@H](Cc2ccc(-c3ccccc3)cc2)C(=O)N[C@@H](C(C)C)C(=O)N[C@@H](CCCN)C(=O)N[C@H](CC(C)C)C(=O)N[C@@H](CCN)C(=O)N[C@@H](CC2CCCCC2)C(=O)N[C@@H](C(C)(C)O)C(=O)N[C@@H](CO)C(=O)N1)C(N)=O [Compound 2327] ({CH2CO}-HY(Carboxymethyl)DWV[Bip]V[Orn][dL][Dab][Cha][Val(3-OH)]SC[dA][Pra]-NH2; thioether N-14)
The IC50 of the first is 9-fold higher: 76.8 nM for the first, 8.5 nM for the second. The second is the more potent here.

First: C#CC[C@H](NC(=O)[C@H](CCN)NC(=O)[C@@H]1CSCC(=O)N[C@@H](Cc2ccncc2)C(=O)N[C@@H](Cc2ccc(C(=O)O)cc2)C(=O)N[C@@H](CC(=O)O)C(=O)N[C@@H](Cc2cccc(C)c2)C(=O)N[C@@H](Cc2ccc(OCC(=O)O)cc2)C(=O)N[C@@H](Cc2ccc(-c3ccccc3)cc2)C(=O)N[C@@H](Cc2ccc(OCC(=O)O)cc2)C(=O)N[C@@H](CCCN)C(=O)N[C@H](CC(C)C)C(=O)N[C@@H](CCN)C(=O)N[C@@H](CC2CCCCC2)C(=O)N[C@@H](C(C)(C)O)C(=O)N[C@@H](CO)C(=O)N1)C(=O)O [Compound 2324] ({CH2CO}-[4Pal][Phe(4-COOH)]D[Phe(3-Me)]Y(Carboxymethyl)[Bip]Y(Carboxymethyl)[Orn][dL][Dab][Cha][Val(3-OH)]SC[Dab][Pra]-OH; thioether N-14)
Second: C#CC[C@H](NC(=O)C(C)NC(=O)[C@@H]1CSCC(=O)N[C@@H](Cc2ccncc2)C(=O)N[C@@H](Cc2ccc(C(=O)O)cc2)C(=O)N[C@@H](CC(=O)O)C(=O)N[C@@H](Cc2cccc(C)c2)C(=O)N[C@@H](Cc2ccc(OCC(=O)O)cc2)C(=O)N[C@@H](Cc2ccc(-c3ccccc3)cc2)C(=O)N[C@@H](Cc2ccc(OCC(=O)O)cc2)C(=O)N[C@@H](CCCN)C(=O)N[C@H](CC(C)C)C(=O)N[C@@H](CCN)C(=O)N[C@@H](CC2CCCCC2)C(=O)N[C@@H](C(C)(C)O)C(=O)N[C@@H](CO)C(=O)N1)C(N)=O (stereo partly drawn) [Compound 2329] ({CH2CO}-[4Pal][Phe(4-COOH)]D[Phe(3-Me)]Y(Carboxymethyl)[Bip]Y(Carboxymethyl)[Orn][dL][Dab][Cha][Val(3-OH)]SC[ξA][Pra]-NH2; thioether N-14)
The IC50 of the first is 3.9-fold lower: 247 nM for the first, 973 nM for the second. The first is the more potent here.

Going from `Cc1cccc(C[C@@H]2NC(=O)[C@H](CC(=O)O)NC(=O)[C@H](Cc3ccc(C(=O)O)cc3)NC(=O)[C@H](Cc3ccncc3)NC(=O)CSC[C@@H](C(=O)N[C@@H](CCN)C(N)=O)NC(=O)[C@H](CCC(=O)O)NC(=O)[C@H](C(C)(C)O)NC(=O)[C@H](CC3CCCCC3)NC(=O)[C@H](CCN)NC(=O)[C@@H](CC(C)C)NC(=O)[C@H](CCCN)NC(=O)[C@H](Cc3ccc(OCC(=O)O)cc3)NC(=O)[C@H](Cc3ccc(-c4ccccc4)cc3)NC(=O)[C@H](Cc3ccc(OCC(=O)O)cc3)NC2=O)c1` [Compound 2330] ({CH2CO}-[4Pal][Phe(4-COOH)]D[Phe(3-Me)]Y(Carboxymethyl)[Bip]Y(Carboxymethyl)[Orn][dL][Dab][Cha][Val(3-OH)]EC[Dab]-NH2; thioether N-14) to `Cc1cccc(C[C@@H]2NC(=O)[C@H](CC(=O)O)NC(=O)[C@H](Cc3ccc(OCC(=O)O)cc3)NC(=O)[C@H](Cc3ccccc3)NC(=O)CSC[C@@H](C(=O)N[C@@H](C)C(N)=O)NC(=O)[C@H](C(C)O)NC(=O)[C@H](C(C)C)NC(=O)[C@H](CC3CCCCC3)NC(=O)[C@H](CN)NC(=O)[C@@H](CC(C)C)NC(=O)[C@H](CCCN)NC(=O)[C@H](CCCNC(N)=O)NC(=O)[C@H](Cc3ccc(-c4ccccc4)cc3)NC(=O)[C@H](C(C)C)NC2=O)c1` (stereo partly drawn) [Compound 2500] ({CH2CO}-FY(Carboxymethyl)D[Phe(3-Me)]V[Bip][Cit][Orn][dL][Dap][Cha]V[Thr(3ξ)]CA-NH2; thioether N-14), the IC50 falls from 249 nM to 10 nM (25-fold).

With `CC(=O)NCCCC[C@@H]1NC(=O)[C@H](CCCNC(N)=O)NC(=O)[C@H](Cc2ccc(-c3ccccc3)cc2)NC(=O)[C@H](C(C)C)NC(=O)[C@H](Cc2cccc(C)c2)NC(=O)[C@H](CC(N)=O)NC(=O)[C@H](Cc2ccc(OCC(=O)O)cc2)NC(=O)[C@H](Cc2ccccc2)NC(=O)CSC[C@@H](C(=O)N[C@@H](C)C(N)=O)NC(=O)[C@H](CO)NC(=O)[C@H](C(C)C)NC(=O)[C@H](CC2CCCCC2)NC(=O)[C@H](CC(N)=O)NC(=O)[C@@H](CC(C)C)NC1=O` [Compound 2501] ({CH2CO}-FY(Carboxymethyl)N[Phe(3-Me)]V[Bip][Cit]K(Ac)[dL]N[Cha]VSCA-NH2; thioether N-14) the IC50 was 17.3 nM.
